According to patent US20240108760A1 (priority 2021, published 2024):
“Also recorded” adds a separate entry of the source. Where two headings read alike, the source gives them in different places.

Assays:
[1] = target: T1, CODA71 chimeric receptors (Homo sapiens, UniProt P36544, F159M/H163T/I152M/R155K/V154L/W156N/Y151P); test: Spontaneous seizures in the intrahippocampal kainic acid focal epilepsy model (chronic EEG); format: in vivo, C57BL/6 mice; conditions: for focal seizures (overall conclusion): CODA71 delivered by AAV9 to hippocampus, activated by TC-5619
Experimental: (§1) Changes to evoked hippocampal seizure thresholds were measured in response to perforant pathway electrical stimulation. For spontaneous seizure experiments, mice were unilaterally injected intrahippocampally with kainic acid (KA) to induce epilepsy, 3 weeks prior to AAV9 injection and EEG electrode implantation.
In one set of animal studies, seven weeks prior to testing of neuron activities, kainic acid was unilaterally injected into CAT to evoke spontaneous seizures. Five weeks later, CODA71 receptor were bilaterally expressed in CA1/DG, along with bipolar electrode placement in CAT for recording EEG (FIG. 32). Spontaneous seizures were tracked with chronic EEG recordings. On alternating days, mice received two i.p. injections of either 100 mg/kg TC-5619 or saline, 2 hrs apart.

[2] = target: T1, CODA71 chimeric receptors; test: Evoked hippocampal seizure threshold, perforant pathway electrical stimulation; format: in vivo, C57BL/6 mice; conditions: for increase of minimal threshold potential to evoke electrographic seizures: i.p. TC-5619 (100 mg/kg)
Experimental: as §1
In one set of animal studies, two weeks prior to seizure threshold testing, CODA71 were bilaterally-expressed in CA1/DG, along with bipolar electrode placement in CAT and the perforant pathway. 45 minutes prior to threshold testing, mice received 100 mg/kg TC-5619 or saline via i.p. injection. Electrical stimulation (1 sec at 60 Hz, 1 ms pulses) of increasing amplitude was delivered every 100 seconds, until electrographic seizures were evoked (FIG. 29).
Here evoked seizure thresholds were determined by monitoring responses to increasing amplitude electrical stimulation and as the minimal stimulation amplitude required to evoke sustained epileptic form activity in each trial.

[3] = target: T1, CODA71 chimeric receptors; test: Whole cell current clamp recording of CA1 neurons in acute slices, TC-5619 bath application; format: cell-based, C57BL/6 mice
hippocampal neurons = test: Hippocampal expression of CODA71 receptor after AAV9 delivery; format: in vivo, C57BL/6 mice; conditions: hSyn promoter
[4] = scrambled control vector injected mice, TC-5619
[5] = CODA71 vector injected mice, 100 mg/kg TC-5619 i.p. 45 minutes prior

Molecule	focal seizures (overall conclusion) [1]	electrographic seizure duration ([1]; CODA71 vector mice, KA epileptic, i.p. TC-5619 100 mg/kg, p=0.0011, 100 mg/kg)	electrographic / spontaneous seizure frequency ([1]; CODA71 vector mice, KA epileptic, i.p. TC-5619 100 mg/kg, p=0.0325, 100 mg/kg)	spontaneous seizure frequency and duration [1, 4]	increase of minimal threshold potential to evoke electrographic seizures ([2]; CODA71 animals, p=0.0166 vs scrambled controls)	electrically-evoked seizure threshold [2, 5]	electrically-evoked seizure threshold [2, 4]	increase of minimal threshold potential to evoke electrographic seizures ([2]; scrambled controls)	neuronal / CA1 action potential firing, excitability [3]	rheobase [3]	neuron property change in presence of bungarotoxin (BTX) ([3]; CODA71 vector vs scrambled control vector, α7-nAChR ligand binding domain inhibited by BTX)	intrinsic properties of whole cell recorded neurons (RMP, input resistance, rheobase, AP count) ([3]; after 1 minute application of 150 nM TC-5619)	neuronal / CA1 action potential firing, excitability ([3]; acute slices, CODA71 transduced, 1-minute bath application of 150 nM TC-5619)	expression of CODA71 receptor in hippocampal / CA1 neurons (hippocampal neurons)
O=C(N[C@@H]1C2CCN(CC2)[C@H]1Cc1cccnc1)c1cc2ccccc2o1 [TC-5619]	ameliorate spontaneous focal seizures	significantly reduced; also recorded: substantial decrease in seizure duration	significantly reduced; also recorded: dropped dramatically; also recorded: prolonged decrease in seizure frequency	little change; also recorded: No such effect was observed	139±48.0%	increased more	did not change seizure thresholds	−10±13.2%	suppressed CA1 action potential firing	368±39.7 pA	little property change	rapidly changed		
CODA71: chimeric LGIC: human α7-nAChR ligand binding domain with GlyRα1 Cys-loop, fused to human GlyRα1 ion pore domain; SEQ ID NO: 33 (protein) MRCSPGGVWLALAASLLHVSLQGEFQRKLYKELVKNYNPLERPVANDSQPLTVYFSLSLLQIMDVDEKNQVLTTNIWLQMSWTDHYLQWNVSEYPGVKTVRFPDGQIWKPDILLYNSADERFDATFHTNVLVNSSGHCQYLPPGIFKSSCPMDLKNFPMDVQTCKLKFGSWSYGGWSLDLQMQEADISGYIPNGEWDLVGIPGKRSERFYECCKEPYPDVTFTVTMRRRMGYYLIQMYIPSLLIVILSWISFWINMDAAPARVGLGITTVLTMTTQSSGSRASLPKVSYVKAIDIWMAVCLLFVFSALLEYAAVNFVSRQHKELLRFRRKRRHHKSPMLNLFQEDEAGEGRFNFSAYGMGPACLQAKDGISVKGANNSNTTNPPPAPSKSPEEMRKLFIQRAKKIDKISRIGFPMAFLIFNMFYWIIYKIVRREDVHNQ	effectively suppress focal seizure; also recorded: ameliorate spontaneous focal seizures; also recorded: prevented both evoked and spontaneous focal seizures					increased							effectively suppress neuronal firing; also recorded: successfully suppressed hippocampal neuronal excitability	expressed well; also recorded: effective expression
